Target: T1, full-length MALT1 protein His-MALT1(1-824) (Homo sapiens, UniProt Q9UDY8)
T1 construct: full-length MALT1 protein His-MALT1(1-824); His (N); made in house; host or cells: baculovirus-infected insect cells
T1 sequence (Q9UDY8 1-824): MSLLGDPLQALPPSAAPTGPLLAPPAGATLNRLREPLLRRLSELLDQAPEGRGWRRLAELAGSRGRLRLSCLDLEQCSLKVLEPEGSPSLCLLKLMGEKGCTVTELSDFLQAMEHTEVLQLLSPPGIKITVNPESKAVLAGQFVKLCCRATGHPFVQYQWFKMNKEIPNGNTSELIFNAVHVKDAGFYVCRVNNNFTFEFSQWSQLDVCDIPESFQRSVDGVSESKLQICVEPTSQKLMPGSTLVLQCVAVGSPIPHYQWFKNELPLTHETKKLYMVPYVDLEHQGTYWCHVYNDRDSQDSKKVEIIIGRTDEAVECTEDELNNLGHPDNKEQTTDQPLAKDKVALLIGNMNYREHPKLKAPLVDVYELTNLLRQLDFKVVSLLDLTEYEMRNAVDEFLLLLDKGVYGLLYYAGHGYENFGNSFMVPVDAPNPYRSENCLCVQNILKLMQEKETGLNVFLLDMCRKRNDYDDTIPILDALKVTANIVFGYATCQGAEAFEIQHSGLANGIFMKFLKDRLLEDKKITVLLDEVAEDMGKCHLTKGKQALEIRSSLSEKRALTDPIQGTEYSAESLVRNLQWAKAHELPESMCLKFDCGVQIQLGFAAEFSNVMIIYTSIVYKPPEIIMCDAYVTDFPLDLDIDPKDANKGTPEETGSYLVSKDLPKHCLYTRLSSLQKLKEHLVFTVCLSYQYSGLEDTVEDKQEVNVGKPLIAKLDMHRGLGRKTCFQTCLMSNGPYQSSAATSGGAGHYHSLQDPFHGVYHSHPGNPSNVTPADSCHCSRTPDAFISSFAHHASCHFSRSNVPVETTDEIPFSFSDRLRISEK
Assay: MALT1 protease assay (Ac-LRSR-AMC tetrapeptide substrate, fluorescence)
Format: biochemical
Conditions: 1 nM MALT1, 25 μM Ac-LRSR-AMC, 2 h pre-incubation, 8 hr incubation at RT
In short: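 Full-length His-MALT1(1-824) from baculovirus-infected insect cells (1 nM) was pre-incubated 2 h at RT with compounds (0.1% DMSO), then 25 μM Ac-LRSR-AMC added in 50 mM Tris pH 7.5, 600 mM sodium citrate, 1 mM DTT, 1 mM EDTA, 0.05% BSA. Fluorescence (ex 355/em 460 nm) read after 8 h at RT; IC50 by non-linear regression of % remaining activity.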

| IC50 [nM] | SMILES |
| --- | --- |
| ≥ 1000 | CC(F)(F)n1ccc([C@]2(C)C[C@@H](C(=O)Nc3cnc(-c4ncccn4)c(C(F)(F)F)c3)c3cnc4cc(F)nn4c32)n1 (single isomer, unassigned) [Example 165, (trans)-8-(1-(1,1-difluoroethyl)-1H-pyrazol-3-yl)-2-fluoro-8-methyl-N-(6-(pyrimidin-2-yl)-5-(trifluoromethyl)pyridin-3-yl)-7,8-dihydro-6H-cyclopenta[e]pyrazolo[1,5-a]pyrimidine-6-carboxamide] |
| ≥ 1000 | C[C@@]1(c2cnn(C(F)F)c2)C[C@@H](C(=O)Nc2cnc(-n3nccn3)c(Cl)c2)c2cnc3cc(F)nn3c21 (single isomer, unassigned) [Example 25] |
| 10 to 100 | C[C@@]1(c2ccn(C(F)F)n2)C[C@H](C(=O)Nc2ccc(-c3ncccn3)c(C(F)(F)F)c2)c2cnc3cc(F)nn3c21 (single isomer, unassigned) [Example 187] |
| 100 to 1000 | Cn1cc([C@]2(C)C[C@H](C(=O)Nc3cnc(-n4nccn4)c(Cl)c3)c3cnc4cc(F)nn4c32)cn1 (racemic) [Example 3, (cis)-N-(5-chloro-6-(2H-1,2,3-triazol-2-yl)pyridin-3-yl)-2-fluoro-8-methyl-8-(1-methyl-1H-pyrazol-4-yl)-7,8-dihydro-6H-cyclopenta[e]pyrazolo[1,5-a]pyrimidine-6-carboxamide] |
| ≥ 1000 | Cc1cc(NC(=O)[C@@H]2C[C@@](C)(c3cnn(C)c3)c3c2cnc2cc(F)nn32)cnc1OC(F)F (single isomer, unassigned) [Example 61] |
| 100 to 1000 | COc1cc(NC(=O)[C@@H]2C[C@@](C)(c3ccn(C(F)F)n3)c3c2cnc2cc(F)nn32)cnc1-c1ncccn1 (single isomer, unassigned) [Example 180] |
| 100 to 1000 | CC(C)n1cc([C@@]2(C)C[C@@H](C(=O)Nc3cnc(-n4nccn4)c(Cl)c3)c3cnc4cc(F)nn4c32)cn1 (single isomer, unassigned) [Example 51] |
| 100 to 1000 | Cn1ccc([C@@]2(C)C[C@@H](C(=O)Nc3cnc(-n4nccn4)c(Cl)c3)c3cnc4cc(Cl)nn4c32)n1 (single isomer, unassigned) [Example 79] |
| 100 to 1000 | C[C@]1(c2ccn(C(F)F)n2)C[C@@H](C(=O)Nc2ccc(-c3ncccn3)c(C(F)(F)F)c2)c2cnc3cc(F)nn3c21 (single isomer, unassigned) [Example 188] |
| 100 to 1000 | Cn1cc([C@@]2(C)C[C@@H](C(=O)Nc3cnc(-n4nccn4)c(C(F)(F)F)c3)c3cnc4cc(F)nn4c32)cn1 (single isomer, unassigned) [Example 6] |
| ≥ 1000 | Cc1cc(NC(=O)[C@@H]2C[C@](C)(c3cnn(C)c3)c3c2cnc2cc(F)nn32)cnc1-n1nccn1 (single isomer, unassigned) [Example 59] |
| ≥ 1000 | Cc1cc(NC(=O)[C@H]2C[C@@](C)(c3cnn(C)c3)c3c2cnc2cc(F)nn32)cnc1OC(F)F (single isomer, unassigned) [Example 62] |
| ≥ 1000 | Cn1cc([C@]2(C)C[C@@H](C(=O)Nc3cnc(-n4nccn4)c(Cl)c3)c3cnc4c(F)c(F)nn4c32)cn1 (single isomer, unassigned) [Example 13] |
| ≥ 1000 | CC1(c2cnn(C(F)F)c2)CC(C(=O)Nc2cnc(N=S3(=O)CCC3)c(Cl)c2)c2cnc3cc(F)nn3c21 (single isomer, unassigned) [Example 97] |
| 100 to 1000 | Cn1cc([C@]2(C)C[C@H](C(=O)Nc3cnc(OC(F)F)c(C#N)c3)c3cnc4cc(F)nn4c32)cn1 (single isomer, unassigned) [Example 42] |
| 100 to 1000 | Cn1cc([C@]2(C)C[C@H](C(=O)Nc3cnc(-n4nccn4)c(Cl)c3)c3cnc4cc(Cl)nn4c32)cn1 (single isomer, unassigned) [Example 10] |

| IC50 [nM] | SMILES |
| --- | --- |
| 10 to 100 | CC1(c2ccn(C(F)F)n2)CC(C(=O)Nc2cnc(-c3cccnn3)c(C(F)(F)F)c2)c2cnc3cc(F)nn3c21 (single isomer, unassigned) [Example 162] |
| ≥ 1000 | C[C@@]1(c2cn(C(F)F)nn2)C[C@@H](C(=O)Nc2cnc(-n3nccn3)c(Cl)c2)c2cnc3cc(F)nn3c21 (single isomer, unassigned) [Example 176] |
| 100 to 1000 | C[C@]1(c2cnn(CC3CC3)c2)C[C@@H](C(=O)Nc2cnc(-n3nccn3)c(Cl)c2)c2cnc3cc(F)nn3c21 (single isomer, unassigned) [Example 101] |
| ≥ 1000 | Cn1nccc1[C@@]1(C)C[C@@H](C(=O)Nc2cnc(-n3nccn3)c(Cl)c2)c2cnc3cc(F)nn3c21 (single isomer, unassigned) [Example 67] |
| 100 to 1000 | Cn1cc([C@]2(C)C[C@H](C(=O)Nc3ccnc(C(F)(F)F)c3)c3cnc4cc(Cl)nn4c32)cn1 (single isomer, unassigned) [Example 46] |
| 100 to 1000 | C[C@]1(c2cnn(CC(F)(F)F)c2)C[C@@H](C(=O)Nc2cnc(-n3nccn3)c(Cl)c2)c2cnc3cc(F)nn3c21 (single isomer, unassigned) [Example 87] |
| 10 to 100 | C[C@@]1(c2ccn(C(F)F)n2)C[C@H](C(=O)Nc2cnc(-n3nccn3)c(Cl)c2)c2cnc3cc(F)nn3c21 (single isomer, unassigned) [Example 90] |
| ≥ 1000 | C[C@@]1(c2ccn(C(F)F)n2)C[C@@H](C(=O)Nc2cnc(-c3ncccn3)c(C(F)(F)F)c2)c2cnc3cc(Cl)nn3c21 (single isomer, unassigned) [Example 172] |
| 10 to 100 | C[C@]1(c2ccn(C(F)F)n2)C[C@@H](C(=O)Nc2cnc(-n3nccn3)c(C(F)(F)F)c2)c2cnc3cc(F)nn3c21 (single isomer, unassigned) [Example 127] |
| 100 to 1000 | Cn1cc([C@@]2(C)C[C@@H](C(=O)Nc3cnc(-n4nccn4)c(Cl)c3)c3cnc4cc(Cl)nn4c32)cn1 (single isomer, unassigned) [Example 11] |
| 100 to 1000 | CCn1cc([C@@]2(C)C[C@@H](C(=O)Nc3cnc(-n4nccn4)c(Cl)c3)c3cnc4cc(F)nn4c32)cn1 (single isomer, unassigned) [Example 23] |
| 10 to 100 | Cc1cc(NC(=O)[C@H]2C[C@](C)(c3cnn(C)c3)c3c2cnc2cc(F)nn32)cnc1OC(F)F (single isomer, unassigned) [Example 60] |
| ≥ 1000 | Cc1cc(NC(=O)[C@@H]2C[C@](C)(c3cnn(C)c3)c3c2cnc2cc(F)nn32)cnc1OC(F)F (single isomer, unassigned) [Example 63] |
| ≥ 1000 | Cn1nccc1[C@]1(C)C[C@@H](C(=O)Nc2cnc(-n3nccn3)c(Cl)c2)c2cnc3cc(F)nn3c21 (single isomer, unassigned) [Example 65] |
| ≥ 1000 | Cn1cc([C@]2(C)C[C@H](C(=O)Nc3cnc(-n4nccn4)c(Cl)c3)c3cnc4c(Cl)c(F)nn4c32)cn1 (single isomer, unassigned) [Example 18, cis-3-chloro-N-(5-chloro-6-(2H-1,2,3-triazol-2-yl)pyridin-3-yl)-2-fluoro-8-methyl-8-(1-methyl-1H-pyrazol-4-yl)-7,8-dihydro-6H-cyclopenta[e]pyrazolo[1,5-a]pyrimidine-6-carboxamide] |
| 10 to 100 | Cc1cc(NC(=O)[C@H]2C[C@](C)(c3cnn(C)c3)c3c2cnc2cc(F)nn32)cnc1-n1nccn1 (single isomer, unassigned) [Example 56, trans-2-fluoro-8-methyl-8-(1-methyl-1H-pyrazol-4-yl)-N-(5-methyl-6-(2H-1,2,3-triazol-2-yl)pyridin-3-yl)-7,8-dihydro-6H-cyclopenta[e]pyrazolo[1,5-a]pyrimidine-6-carboxamide] |

From US20260049085A1, “CYCLIC COMPOUNDS AND METHODS OF USING SAME” (SCHRÖDINGER, INC., priority 2022, published 2026)
